Numbers after ± are expanded uncertainties.
Details: Fluid (supercritical or subcritical phases), Bellows volumetry

**Q.** Which mass density (280 K, 581.4 kPa) does the source give for CCC [propane] here?
**A.** 519.39 ± 0.94 kg/m3

**Q.** What about the mass density (280 K, 604.8 kPa) of the same compound?
**A.** 519.45 ± 0.94 kg/m3

**Q.** What about the mass density (280 K, 628.1 kPa) of the same compound?
**A.** 519.49 ± 0.96 kg/m3

**Q.** And the mass density (280 K, 651.4 kPa)?
**A.** 519.57 ± 0.97 kg/m3

**Q.** What about the mass density (280 K, 674.7 kPa) of the same compound?
**A.** 519.62 ± 0.97 kg/m3

**Q.** What about the mass density (280 K, 698 kPa) of the same compound?
**A.** 519.69 ± 0.94 kg/m3

**Q.** And the mass density (280 K, 721.4 kPa)?
**A.** 519.75 ± 0.94 kg/m3

**Q.** What about the mass density (300 K, 1006 kPa) of the same compound?
**A.** 489.83 ± 0.88 kg/m3

**Q.** What about the mass density (300 K, 1029.4 kPa) of the same compound?
**A.** 489.89 ± 0.88 kg/m3

**Q.** And the mass density (300 K, 1052.6 kPa)?
**A.** 489.98 ± 0.88 kg/m3

**Q.** And the mass density (300 K, 1075.9 kPa)?
**A.** 490.05 ± 0.88 kg/m3

**Q.** And the mass density (300 K, 1099.3 kPa)?
**A.** 490.1 ± 0.88 kg/m3

**Q.** What about the mass density (300 K, 1122.6 kPa) of the same compound?
**A.** 490.2 ± 0.9 kg/m3

**Q.** And the mass density (300 K, 1145.9 kPa)?
**A.** 490.3 ± 0.88 kg/m3

**Q.** What about the mass density (320 K, 1611.1 kPa) of the same compound?
**A.** 455.49 ± 0.82 kg/m3

**Q.** What about the mass density (320 K, 1634.4 kPa) of the same compound?
**A.** 455.61 ± 0.82 kg/m3

**Q.** What about the mass density (320 K, 1657.6 kPa) of the same compound?
**A.** 455.75 ± 0.82 kg/m3

**Q.** What about the mass density (320 K, 1680.9 kPa) of the same compound?
**A.** 455.88 ± 0.84 kg/m3

**Q.** And the mass density (320 K, 1704.2 kPa)?
**A.** 455.99 ± 0.84 kg/m3

**Q.** What about the mass density (320 K, 1727.5 kPa) of the same compound?
**A.** 456.09 ± 0.82 kg/m3

**Q.** And the mass density (320 K, 1750.7 kPa)?
**A.** 456.24 ± 0.82 kg/m3

**Q.** And the mass density (340 K, 2447.1 kPa)?
**A.** 412.74 ± 0.74 kg/m3

**Q.** And the mass density (340 K, 2470.3 kPa)?
**A.** 412.98 ± 0.74 kg/m3

**Q.** What about the mass density (340 K, 2493.4 kPa) of the same compound?
**A.** 413.23 ± 0.74 kg/m3

**Q.** What about the mass density (340 K, 2516.6 kPa) of the same compound?
**A.** 413.48 ± 0.76 kg/m3

**Q.** What about the mass density (340 K, 2539.8 kPa) of the same compound?
**A.** 413.66 ± 0.76 kg/m3

**Q.** And the mass density (340 K, 2563 kPa)?
**A.** 413.88 ± 0.75 kg/m3

**Q.** What about the mass density (340 K, 2586.2 kPa) of the same compound?
**A.** 414.08 ± 0.74 kg/m3

**Q.** And the mass density (360 K, 3558 kPa)?
**A.** 346.61 ± 0.64 kg/m3

**Q.** And the mass density (360 K, 3558.8 kPa)?
**A.** 346.43 ± 0.64 kg/m3

**Q.** What about the mass density (360 K, 3566.8 kPa) of the same compound?
**A.** 346.83 ± 0.63 kg/m3

**Q.** And the mass density (360 K, 3569.1 kPa)?
**A.** 347.17 ± 0.63 kg/m3

**Q.** And the mass density (360 K, 3569.9 kPa)?
**A.** 346.97 ± 0.64 kg/m3

**Q.** And the mass density (360 K, 3580.3 kPa)?
**A.** 347.61 ± 0.63 kg/m3

**Q.** What about the mass density (360 K, 3591.6 kPa) of the same compound?
**A.** 348.04 ± 0.63 kg/m3

**Q.** What about the mass density (360 K, 3592.2 kPa) of the same compound?
**A.** 347.94 ± 0.63 kg/m3

**Q.** And the mass density (360 K, 3602.8 kPa)?
**A.** 348.46 ± 0.64 kg/m3

**Q.** And the mass density (360 K, 3614 kPa)?
**A.** 348.96 ± 0.69 kg/m3

**Q.** What about the mass density (360 K, 3614.5 kPa) of the same compound?
**A.** 348.91 ± 0.63 kg/m3

**Q.** And the mass density (360 K, 3622.6 kPa)?
**A.** 349.31 ± 0.63 kg/m3

**Q.** What about the mass density (360 K, 3625.2 kPa) of the same compound?
**A.** 349.4 ± 0.63 kg/m3

**Q.** What about the mass density (360 K, 3636.5 kPa) of the same compound?
**A.** 349.82 ± 0.71 kg/m3

**Q.** What about the mass density (360 K, 3636.9 kPa) of the same compound?
**A.** 349.82 ± 0.63 kg/m3

**Q.** And the mass density (360 K, 3647.8 kPa)?
**A.** 350.25 ± 0.65 kg/m3

**Q.** And the mass density (360 K, 3659 kPa)?
**A.** 350.7 ± 0.65 kg/m3

**Q.** What about the mass density (360 K, 3659.4 kPa) of the same compound?
**A.** 350.7 ± 0.65 kg/m3

**Q.** And the mass density (360 K, 3670.3 kPa)?
**A.** 351.13 ± 0.65 kg/m3

**Q.** What about the mass density (360 K, 3678.7 kPa) of the same compound?
**A.** 351.52 ± 0.65 kg/m3

**Q.** And the mass density (360 K, 3681.8 kPa)?
**A.** 351.59 ± 0.65 kg/m3

**Q.** And the mass density (360 K, 3704.3 kPa)?
**A.** 352.44 ± 0.8 kg/m3

**Q.** What about the mass density (360 K, 3726.8 kPa) of the same compound?
**A.** 353.19 ± 0.65 kg/m3

**Q.** And the mass density (365 K, 3897.8 kPa)?
**A.** 317.84 ± 0.66 kg/m3

**Q.** And the mass density (365 K, 3903 kPa)?
**A.** 318.4 ± 0.65 kg/m3

**Q.** And the mass density (365 K, 3923.7 kPa)?
**A.** 320.49 ± 0.64 kg/m3

**Q.** And the mass density (365 K, 3944.7 kPa)?
**A.** 322.39 ± 0.63 kg/m3

**Q.** What about the mass density (365 K, 3965.9 kPa) of the same compound?
**A.** 324.14 ± 0.63 kg/m3

**Q.** And the mass density (365 K, 3987.2 kPa)?
**A.** 325.86 ± 0.62 kg/m3

**Q.** And the mass density (365 K, 4008.7 kPa)?
**A.** 327.39 ± 0.61 kg/m3

**Q.** And the mass density (365 K, 4030.4 kPa)?
**A.** 328.84 ± 0.63 kg/m3

— the NIST ThermoML archive (doi:10.1016/j.jct.2006.07.012)
